This is an account of results in ChEMBL document CHEMBL1130292, “Novel cyanoguanidines with potent oral antitumour activity” (Bioorg Med Chem Lett, 1997).

The subject of one assay is MCF7. Kind of assay: Evaluated in vitro for antiproliferative activity against MCF-7 cell lines model of hormone dependent breast cancer. In kind it is functional, cell-based. The conditions noted are these: Homo sapiens.
The subject of a further assay is NCI-H460. Kind of assay: Evaluated in vitro for antiproliferative activity against […] cell lines derived from large cell carcinoma of the lung. In kind it is functional, cell-based. The note with it: Homo sapiens.
For assay [1], the system named is NYH small cell lung cancer (Homo sapiens). Kind of assay: Evaluated in vitro for antiproliferative activity against NYH cell lines derived from small cell lung cancer.
For assay [2], the system named is Mus musculus. Kind of assay: Percent median treated tumor size to that of control tumor size in NYH treatment model in mice (in vivo) after peroral administration of compound (20 mg/kg, number of tumors 8). In kind it is functional.
For assay [3], the system named is Mus musculus. Kind of assay: Percent median treated tumor size to that of control tumor size in NYH treatment model in mice (in vivo) after peroral administration of compound (20 mg/kg, number of tumors 11). In kind it is functional.
In assay [4] the test system is Mus musculus. Kind of assay: Percent median treated tumor size to that of control tumor size in NYH treatment model in mice (in vivo) after peroral administration of compound (20 mg/kg, number of tumors 9). In kind it is functional.
Another assay relates to B16. Kind of assay: In vitro antiproliferative activity against B16 cell lines. In kind it is functional, cell-based. The note with it: Mus musculus.
Assay [5] is described as follows: In vitro antiproliferative activity against Fibroblasts. In kind it is functional.
In assay [6] the test system is Lewis lung carcinoma cell line. Kind of assay: In vitro antiproliferative activity against Lewis cell lines. The note with it: Mus musculus. In kind it is functional, cell-based.
In assay [7] the test system is Mus musculus. Kind of assay: Percent median treated tumor size to that of control tumor size in NYH treatment model in mice (in vivo) after peroral administration of compound (25 mg/kg, number of tumors 9). In kind it is functional.
Assay [8] deals with Mus musculus. Kind of assay: Percent median treated tumor size to that of control tumor size in NYH treatment model in mice (in vivo) after peroral administration of compound (50 mg/kg, number of tumors 13). In kind it is functional.
Assay [9] relates to Mus musculus. Kind of assay: Percent median treated tumor size to that of control tumor size in NYH treatment model in mice (in vivo) after peroral administration of compound (20 mg/kg, number of tumors 20). In kind it is functional.
Another assay concerns WALKER. Kind of assay: In vitro antiproliferative activity against Walker cell line. The note with it: Rattus norvegicus. In kind it is functional, cell-based.
The test system of the next assay is YOSHIDA. Kind of assay: In vitro antiproliferative activity against Yoshida cell lines. In kind it is functional, cell-based. The conditions noted are these: Rattus norvegicus.
The subject of assay [10] is Mus musculus. Kind of assay: Percent median treated tumor size to that of control tumor size in NYH treatment model in mice (in vivo) after intraperitoneal administration of compound (0.5 mg/kg, number of tumors 8). In kind it is functional.
Assay [11] concerns Mus musculus. Kind of assay: Percent median treated tumor size to that of control tumor size in NYH treatment model in mice (in vivo) after subcutaneous administration of compound (10 mg/kg, number of tumors 7). In kind it is functional.

SMILES strings stand for the structures.

Regarding `N#CN/C(=N\CCCCCCOc1ccccc1Cl)Nc1ccncc1`, the IC50 (usually the point on the concentration scale where inhibition reaches its midpoint) in the assay with MCF7 was found to be 1.9 nM; in the assay with NCI-H460, 5.8 nM; in assay [1], 0.6 nM.
For `N#CN/C(=N\CCCCCCCOc1ccccc1)Nc1cccnc1` the same measures were 42 nM, 360 nM and 22 nM.
As to `COc1ccccc1OCCCCCC/N=C(\NC#N)Nc1ccncc1`, the values for the IC50 (with MCF7; in the assay with NCI-H460; in [1]) were 1.1 nM, 21 nM and 0.5 nM, respectively.
For `COc1ccc(OCCCCCC/N=C(\NC#N)Nc2ccncc2)cc1` the same measures were 37 nM, 37 nM and 12 nM.
On the same counts, the results for `N#CN/C(=N\CCCCCCCCOc1ccc(Cl)cc1)Nc1ccncc1` are 54 nM, 480 nM and 15 nM.
On the same counts, the results for `N#CN/C(=N\CCCCCCOc1ccc([N+](=O)[O-])cc1)Nc1ccncc1` are 120 nM, 590 nM and 52 nM.
In the case of `N#CN/C(=N\CCCCCCOc1ccccc1)Nc1ccncc1`, the IC50 in the assay with MCF7 came to 30 nM; in the assay on NCI-H460, 52 nM; in assay [1], 4.9 nM.
In the case of `COc1cccc(OCCCCCC/N=C(\NC#N)Nc2ccncc2)c1`, the results for the IC50 (in the assay on MCF7; with NCI-H460; in assay [1]) were 3.8 nM, 38 nM and 1.9 nM, respectively. In addition, the T/C – broadly, the ratio of treated to control – in the assay with Mus musculus [2] came out at 42%.
Regarding `N#CN/C(=N\CCCCCCOc1ccccc1[N+](=O)[O-])Nc1ccncc1`, the IC50 in the assay on MCF7 is 6.3 nM; in the assay with NCI-H460 it was 41 nM; in assay [1], 0.6 nM.
`N#CN/C(=N\CCCCCCCOc1ccc(Cl)cc1)Nc1ccncc1`: the IC50 is 56 nM with MCF7, 69 nM with NCI-H460 and 6.2 nM in [1].
For the molecule `N#CN/C(=N\CCCCCCCOc1ccccc1)Nc1ccncc1`, the IC50 with MCF7 stood at 14 nM; in the assay on NCI-H460 it was 27 nM; in assay [1], 0.6 nM. For the same molecule, the T/C in the assay on Mus musculus [3] was 35%.
As to `N#CN/C(=N\CCCCCCOc1cccc(Cl)c1)Nc1ccncc1`, the figures for the IC50 (in the assay with MCF7; in the assay with NCI-H460; in assay [1]) were 8.8 nM, 59 nM and 6.1 nM, respectively.
Take `N#CN/C(=N\CCCCCCOc1ccccc1)Nc1cccnc1`: the figures for the IC50 (with MCF7; in the assay on NCI-H460; in assay [1]) were 230 nM, 530 nM and 52 nM, respectively.
On the same counts, the results for `N#CN/C(=N\CCCCCCOc1cccc([N+](=O)[O-])c1)Nc1ccncc1` are 31 nM, 74 nM and 5.7 nM.
For `N#CN/C(=N\CCCCCOc1ccc(Cl)cc1)Nc1ccncc1` the same measures were 53 nM, 590 nM and 6.3 nM.
Turning to `N#CN/C(=N\CCCCCCOc1cc(Cl)c(Cl)cc1Cl)Nc1ccncc1`, the concentration for half-maximal inhibition (IC50) in the assay with MCF7 was found to be 4.4 nM; in the assay on NCI-H460 it was 13 nM; in [1], 2.1 nM. Further, in the assay with Mus musculus [4], the T/C was determined as 0%.
Consider `N#CN=C(NCCCCCCOc1ccc(Cl)cc1)Nc1ccncc1` [CHS-828], for which the half-inhibitory concentration (IC50) was 280 nM with B16; 40 nM in assay [5]; 31 nM in the assay with MCF7; 560 nM in assay [6]; 50 nM in the assay with NCI-H460; 500 nM in the assay with WALKER. Moreover, the half-inhibitory concentration (IC50) with YOSHIDA amounted to 140 nM; in assay [1], 2.7 nM. The T/C in the assay on Mus musculus [7], in the assay with Mus musculus [8] and in the assay with Mus musculus [9] was 0% throughout.
As for `COc1cccc2c1C(=O)c1c(O)c3c(c(O)c1C2=O)C[C@@](O)(C(C)=O)C[C@@H]3O[C@H]1C[C@H](N)[C@H](O)[C@H](C)O1` [DAUNORUBICIN], the half-inhibitory concentration (IC50) is 9.2 nM in the assay with B16; 39 nM in the assay with MCF7; 61 nM in assay [6]; 3.5 nM in the assay with NCI-H460; 47 nM in the assay with WALKER; 7.4 nM in the assay on YOSHIDA. In assay [1], the half-inhibitory concentration (IC50) was 3.9 nM. In the assay on Mus musculus [10], this molecule gave a T/C of 105%.
Turning to `CC(=O)O[C@H]1C(=O)[C@@]2(C)[C@H]([C@H](OC(=O)c3ccccc3)[C@]3(O)C[C@H](OC(=O)[C@H](O)[C@@H](NC(=O)c4ccccc4)c4ccccc4)C(C)=C1C3(C)C)[C@]1(OC(C)=O)CO[C@@H]1C[C@@H]2O` [PACLITAXEL], the IC50 with B16 turned out to be 8 nM; in [5], 0.9 nM; in assay [6], 61 nM; with WALKER it was 150 nM; in the assay with YOSHIDA it was 7.9 nM; in assay [1], 4.3 nM. In the assay on Mus musculus [11], this molecule showed a T/C of 48%.
